How the values were obtained:
[1] = tested on: Purified human neutrophils; assay: Luminol enhanced chemiluminescence (neutrophil oxidative activity), fMLP stimulated; assay type: cell-based; details: Homo sapiens, Neutrophil; read-out: Functional
From the text: Chemiluminescence Methods: Luminol enhanced chemiluminescence, a measure of neutrophil oxidative activity, is dependent upon both superoxide production and mobilization of the granule enzyme myeloperoxidase. The light is emitted from unstable high-energy oxygen species such as hypochlorous acid and singlet oxygen generated by activated neutrophils.
Purified human neutrophils (2×10^6/ml) suspended in Hanks balanced salt solution containing 0.1% human serum albumin (HA), adenosine deaminase (1 U/mL) and rolipram (100 nM) were incubated (37 C) in a water bath for 15 min with or without rhTNF (10 U/ml). Following incubation 100 µL aliquots of the PMN were transferred to wells (White walled clear bottom 96 well tissue culture plates Costar #3670; 2 wells/condition) containing […] and luminol (final concentration 100M) with or without adenosine agonist (final agonist concentrations 0.01-1000 nM). The plate was incubated 5 min (37 C) and then fMLP (50 l in HA; final concentration […]) was added to all wells.
Peak chemiluminescence was determined with a Victor 1420 Multilabel Counter in the chemiluminescence mode using the Wallac Workstation software. Data are presented as peak chemiluminescence as percent of activity in the absence of an adenosine agonist. The EC50 was determined using PRISM software. All compounds were tested with PMNs from three separate donors.

[2] = molecular target: T1, human A3 AR (Homo sapiens, UniProt P0DMS8); assay: Radioligand competition binding with 125I-ABA, membranes of HEK 293 cells stably expressing the receptor; details: Ki derived from IC50, class symbols
T1 construct: expressed in transfected cells; membranes
T1 sequence (P0DMS8 1-318): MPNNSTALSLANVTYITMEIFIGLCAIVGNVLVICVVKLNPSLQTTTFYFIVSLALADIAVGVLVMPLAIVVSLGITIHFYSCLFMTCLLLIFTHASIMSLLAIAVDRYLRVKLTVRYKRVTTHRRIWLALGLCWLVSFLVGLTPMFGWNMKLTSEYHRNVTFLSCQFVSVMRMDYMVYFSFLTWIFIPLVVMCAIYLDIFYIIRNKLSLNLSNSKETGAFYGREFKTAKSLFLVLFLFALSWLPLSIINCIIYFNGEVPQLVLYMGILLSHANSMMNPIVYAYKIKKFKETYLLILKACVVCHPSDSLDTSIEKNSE
Protocol: (§1) Cell culture and membrane preparation. Sf9 cells were cultured in Grace's medium supplemented with 10% fetal bovine serum, 2.5 μg/ml amphotericin B and 50 μg/ml gentamycin in an atmosphere of 50% N2/50% O2. Viral infection was performed at a density of 2.5×10^6 cells/mL with a multiplicity of infection of two for each virus used. Infected cells were harvested 3 days post-infection and washed twice in insect PBS (PBS pH 6.3). Cells were then resuspended in lysis buffer (20 mM HEPES pH 7.5, 150 mM NaCl, 3 mM MgCl2, 1 mM α-mercaptoethanol (BME), 5 μg/mL leupeptin, 5 μg/mL pepstatin A, 1 μg/mL aprotinin, and 0.1 mM PMSF) and snap frozen for storage at −80° C. Cells were thawed on ice, brought to 30 mL total volume in lysis buffer, and burst by N2 cavitation (600 psi for 20 minutes). A low-speed centrifugation was performed to remove any unlysed cells (1000×g for 10 minutes), followed by a high-speed centrifugation (17,000×g for 30 minutes). The pellet from the final centrifugation was homogenized in buffer containing 20 mM HEPES pH 8, 1100 mM NaCl, 1% glycerol, 2 μg/mL leupeptin, 2 μg/mL pepstatin A, 2 μg/mL Aprotinin, 0.1 mM PMSF, and 10 μM GDP using a small glass homogenizer followed by passage through a 26 gauge needle. Membranes were aliquoted, snap frozen in liquid N2, and stored at −80° C. Membranes from cells stably expressing the human A1 AR (CHO K1 cells) or A3 AR (HEK 293 cells) were prepared as described (Robeva et al., 1996).
Radioligand Binding Assays. Radioligand binding to recombinant human A2A receptors in Sf9 cell membranes was performed using either the radiolabeled agonist, ^125I-APE (Luthin et al., 1995) or the radiolabeled antagonist, ^125I-ZM241385 (^125I-ZM). To detect the high affinity, GTPγS-sensitive state of A1 and A3 AR, we used the agonist, ^125I-ABA (Linden et al., 1985; Linden et al., 1993). Binding experiments were performed in triplicate with 5 μg (A2A) or 25 μg (A1 and A3) membrane protein in a total volume of 00.1 mL HE buffer (20 mM HEPES and 1 mM EDTA) with 1 U/mL adenosine deaminase and 5 mM MgCl2 with or without 50 μM GTPγS. Membranes were incubated with radioligands at room temperature for three hours (for agonists) or two hours (for antagonists) in Millipore Multiscreen® 96-well GF/C filter plates and assays were terminated by rapid filtration on a cell harvester (Brandel, Gaithersburg, Md.) followed by 4×150 μl washes over 30 seconds with ice cold 10 mM Tris-HCl, pH 7.4, 10 mM MgCl2. Nonspecific binding was measured in the presence of 50 μM NECA. Competition binding assays were performed as described (Robeva et al., 1996) using 0.5-1 nM ^125I-APE, ^125I-ZM241385, or ^125I-ABA. […] The Ki values for competing compound binding to a single site were derived from IC50 values with correction for radioligand and competing compound depletion as described previously (Linden, 1982).

[3] = molecular target: T2, human A1 AR (Homo sapiens, UniProt P30542); assay: Radioligand competition binding with 125I-ABA, membranes of CHO K1 cells stably expressing the receptor; details: Ki derived from IC50, class symbols
T2 construct: expressed in transfected cells; membranes
T2 sequence (P30542 1-326): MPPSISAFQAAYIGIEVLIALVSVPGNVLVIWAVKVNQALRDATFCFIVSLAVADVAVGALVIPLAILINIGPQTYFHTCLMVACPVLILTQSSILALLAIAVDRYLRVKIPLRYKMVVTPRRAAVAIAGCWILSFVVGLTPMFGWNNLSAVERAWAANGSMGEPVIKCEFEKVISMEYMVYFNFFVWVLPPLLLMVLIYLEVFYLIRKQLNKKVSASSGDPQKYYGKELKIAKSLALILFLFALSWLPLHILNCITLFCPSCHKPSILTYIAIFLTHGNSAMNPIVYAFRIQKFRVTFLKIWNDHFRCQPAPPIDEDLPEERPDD

[4] = molecular target: T3, recombinant human A2A receptors (Homo sapiens, UniProt P29274); assay: Radioligand competition binding with 125I-APE or 125I-ZM241385, Sf9 cell membranes; details: 125I-APE or 125I-ZM241385, Sf9 membranes; class symbols
T3 construct: expressed in transfected cells; host or cells: Sf9 insect cells infected with virus; membranes
T3 sequence (P29274 whole entry): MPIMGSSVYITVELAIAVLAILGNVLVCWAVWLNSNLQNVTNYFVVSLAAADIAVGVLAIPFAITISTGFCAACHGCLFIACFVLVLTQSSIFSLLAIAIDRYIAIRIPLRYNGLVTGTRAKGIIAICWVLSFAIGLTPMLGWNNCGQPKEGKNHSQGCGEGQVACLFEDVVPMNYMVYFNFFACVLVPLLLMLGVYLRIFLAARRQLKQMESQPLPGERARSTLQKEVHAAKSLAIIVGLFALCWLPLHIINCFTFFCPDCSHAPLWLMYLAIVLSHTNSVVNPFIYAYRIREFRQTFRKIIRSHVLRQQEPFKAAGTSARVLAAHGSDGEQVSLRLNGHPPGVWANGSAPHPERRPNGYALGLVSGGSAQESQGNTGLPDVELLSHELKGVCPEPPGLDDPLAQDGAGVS
Protocol: as §1, with “C.” for “C. Membranes from cells stably expressing the human A1 AR (CHO K1 cells) or A3 AR (HEK 293 cells) were prepared as described (Robeva et al., 1996).”
Radioligand Binding Assays. […] Binding experiments were performed in triplicate with 5 μg (A2A) or 25 μg (A1 and A3) membrane protein in a total volume of 00.1 mL HE buffer (20 mM HEPES and 1 mM EDTA) with 1 U/mL adenosine deaminase and 5 mM MgCl2 with or without 50 μM GTPγS. Membranes were incubated with radioligands at room temperature for three hours (for agonists) or two hours (for antagonists) in Millipore Multiscreen® 96-well GF/C filter plates and assays were terminated by rapid filtration on a cell harvester (Brandel, Gaithersburg, Md.) followed by 4×150 μl washes over 30 seconds with ice cold 10 mM Tris-HCl, pH 7.4, 10 mM MgCl2. Nonspecific binding was measured in the presence of 50 μM NECA.

Row | Compound | EC50 [1] [µM] | Ki [2] [µM] | Ki [3] [µM] | Ki [4] [µM]
1 | Nc1nc(C#CCC2CCN(C(=O)Oc3ccccc3Cl)CC2)nc2c1ncn2[C@@H]1O[C@H](C(=O)NC2CC2)C(O)[C@@H]1O (some centres unmarked) [Compound 22, N-Cyclopropyl 2-{3-[1-(2-chlorophenyloxycarbonyl)-4-piperidinyl]-1-propyn-1-yl}adenosine-5′-uronamide] | < 0.01 | > 0.1 | < 0.1 | < 0.001
2 | COc1ccc(OC(=O)N2CCC(CC#Cc3nc(N)c4ncn([C@@H]5O[C@H](C(=O)NC6CC6)C(O)[C@@H]5O)c4n3)CC2)cc1 (some centres unmarked) [Compound 23] | < 0.001 | < 0.1 | < 0.1 | < 0.001
3 | CCNC(=O)[C@H]1O[C@@H](n2cnc3c(N)nc(C#CCC4CCN(C(=O)Oc5ccc(F)cc5)CC4)nc32)[C@@H](O)C1O (some centres unmarked) [Compound 24, N-Ethyl 2-{3-[1-(4-fluorophenyloxycarbonyl)-4-piperidinyl]-1-propyn-1-yl}adenosine-5′-uronamide] | < 0.001 | < 0.01 | < 0.1 | < 0.001
4 | CCNC(=O)[C@H]1O[C@@H](n2cnc3c(N)nc(C#CCC4CCN(C(=O)Oc5ccc(C(=O)OC)cc5)CC4)nc32)[C@@H](O)C1O (some centres unmarked) [Compound 25, N-Ethyl 2-{3-[1-(4-methoxycarboxyphenyloxycarbonyl)-4-piperidinyl]-1-propyn-1-yl}adenosine-5′-uronamide] | < 0.01 | < 0.1 | > 0.1 | < 0.01
5 | CCNC(=O)[C@H]1O[C@@H](n2cnc3c(N)nc(C#CCC4CCN(C(=O)Oc5ccc(Cl)cc5)CC4)nc32)[C@@H](O)C1O (some centres unmarked) [Compound 26, N-Ethyl 2-{3-[1-(4-chlorophenyloxycarbonyl)-4-piperidinyl]-1-propyn-1-yl}adenosine-5′-uronamide] | < 0.001 | < 0.01 | < 0.1 | < 0.001
6 | Nc1nc(C#CCC2CCN(C(=O)Oc3ccc(Cl)cc3)CC2)nc2c1ncn2[C@@H]1O[C@H](CO)[C@@H](O)[C@H]1O [Compound 27, 2-{3-[1-((4-Chloro)phenoxycarbanoyl)piperidin-4-yl]propyn-1-yl}adenosine] | < 0.01 | < 0.1 | < 0.1 | < 0.001
7 | COc1ccc(OC(=O)N2CCC(CC#Cc3nc(N)c4ncn([C@@H]5O[C@H](CO)[C@@H](O)[C@H]5O)c4n3)CC2)cc1 [Compound 28, 2-{3-[1-((4-Methoxy)phenoxycarbanoyl)piperidin-4-yl]propyn-1-yl}adenosine] | < 0.01 | < 0.1 | < 0.1 | < 0.001
8 | Cc1ccc(OC(=O)N2CCC(CC#Cc3nc(N)c4ncn([C@@H]5O[C@H](CO)[C@@H](O)[C@H]5O)c4n3)CC2)cc1 [Compound 29, 2-{3-[1-((4-Methyl)phenoxycarbanoyl)piperidin-4-yl]propyn-1-yl}adenosine] | < 0.01 | < 0.1 | < 0.1 | < 0.001
9 | Nc1nc(C#CCC2CCN(C(=O)OCc3ccc([N+](=O)[O-])cc3)CC2)nc2c1ncn2[C@@H]1O[C@H](CO)[C@@H](O)[C@H]1O [Compound 30, 2-{3-[1-((4-Nitro)benzyloxycarbanoyl)piperidin-4-yl]propyn-1-yl}adenosine] | < 0.01 | < 0.1 | < 0.1 | < 0.01
10 | CCNC(=O)[C@H]1O[C@@H](n2cnc3c(N)nc(C#CCC4CCN(C(=O)Oc5ccccc5Cl)CC4)nc32)[C@@H](O)C1O (some centres unmarked) [Compound 31, N-Ethyl 2-{3-[1-(2-chlorophenyloxycarbonyl)-4-piperidinyl]-1-propyn-1-yl}adenosine-5′-uronamide] | < 0.01 | < 0.01 | < 0.1 | < 0.001
11 | CCNC(=O)[C@H]1O[C@@H](n2cnc3c(N)nc(C#CCC4CCN(C(=O)OCc5ccccc5)CC4)nc32)[C@@H](O)C1O (some centres unmarked) [Compound 32, N-Ethyl 2-{3-[1-(benzyloxycarbonyl)-4-piperidinyl]-1-propyn-1-yl}adenosine-5′-uronamide, reference compound] | < 0.01 | < 0.1 | > 0.1 | < 0.001
